Results published in patent publication EP2892896B1 (Bristol-Myers Squibb Company, priority 2012, dated 2014).

Each compound was assayed against T1, human melanin concentrating hormone receptor (MCHR1) (Homo sapiens, UniProt Q99705, A5T/E4Q) (assay: Radioligand binding assay for assessment of MCHR1 activity). Settings: membranes from HEK-293 cells expressing a mutated (E4Q, A5T) hMCHR1 receptor; competition with 0.06 - 0.1 nM [Phe13, [125I]Tyr19]-MCH; 90 min.
T1 construct: expressed in transfected cells; host or cells: HEK-293 (stably transfected), membranes
T1 sequence (Q99705 whole entry E4Q/A5T): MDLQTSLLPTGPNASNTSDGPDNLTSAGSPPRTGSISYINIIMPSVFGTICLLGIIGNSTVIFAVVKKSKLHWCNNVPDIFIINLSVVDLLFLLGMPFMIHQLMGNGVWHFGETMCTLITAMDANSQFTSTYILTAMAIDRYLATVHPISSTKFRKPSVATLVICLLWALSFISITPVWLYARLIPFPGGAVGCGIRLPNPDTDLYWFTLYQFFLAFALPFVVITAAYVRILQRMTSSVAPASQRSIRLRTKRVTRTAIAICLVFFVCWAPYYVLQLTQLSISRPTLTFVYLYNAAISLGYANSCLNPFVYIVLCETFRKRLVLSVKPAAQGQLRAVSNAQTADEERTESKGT
Protocol: Radioligand Binding Assay for Assessment of MCHR1 Activity
An in vitro binding assay was used to determine the compound Ki value or ability to antagonize binding of a peptide agonist to the human melanin concentrating hormone receptor (MCHR1). […] Binding experiments were carried out with 0.5-1.0 µg of membrane protein incubated in a total of 0.2 mL in 25 mM HEPES (pH 7.4) with 10 mM MgCl2, 2 mM EGTA, and 0.1% BSA (Binding Buffer) for 90 min. For competition binding assays, reactions were carried out in the presence of with 0.06 - 0.1 nM [Phe^13, [^125I]Tyr^19]-MCH and increasing concentrations of unlabeled test molecules. […] Filters were dried, 0.05 mL MicroScint 20 was added to each well and radioactivity was subsequently quantified by scintillation counting on a TOPCOUNT® microplate scintillation counter (Packard). Inhibitory constants were determined by nonlinear least squares analysis using a four parameter logistic equation.
Work on `COc1cc(N2CC[C@@H](Oc3ccc(C(F)(F)F)cc3)C2=O)ccc1OCC(C)(C)O` (single isomer, unassigned) [Example 9] yielded a Ki of 23 nM. `COc1cc(N2CC[C@H](Oc3ccc(C(F)(F)F)cc3)C2=O)ccc1OCC(C)(C)O` (single isomer, unassigned) [Example 10] showed a Ki of 6000 nM. `Cc1cc(N2CC[C@@H](Oc3ccc(-c4ccccc4)cc3)C2=O)ccc1OCCS(C)(=O)=O` (single isomer, unassigned) [Example 106] was tested, and the Ki was 636 nM. With `COc1cc(N2CCC(Oc3ccccc3Cl)C2=O)ccc1OCC(C)(C)O` (stereo not shown) [Example 1, 3-(2-Chlorophenoxy)-1-(4-(2-hydroxy-2-methylpropoxy)-3-methoxyphenyl)pyrrolidin-2-one] the Ki was 5000 nM. `COc1cc(N2CCC(Oc3cccc(Cl)c3)C2=O)ccc1OCC(C)(C)O` (stereo not shown) [Example 2] gave a Ki of 10000 nM. `COc1cc(N2CCC(Oc3ccc(Cl)cc3)C2=O)ccc1OCC(C)(C)O` (stereo not shown) [Example 3] was tested, and the Ki was 2060 nM. Compound `COc1cccc(OC2CCN(c3ccc(OCC(C)(C)O)c(OC)c3)C2=O)c1` (stereo not shown) [Example 4] has a Ki of 218 nM. Compound `COc1ccc(OC2CCN(c3ccc(OCC(C)(C)O)c(OC)c3)C2=O)cc1` (stereo not shown) [Example 5] has a Ki of 662 nM. `COc1cc(N2CCC(Oc3ccccc3C(F)(F)F)C2=O)ccc1OCC(C)(C)O` (stereo not shown) [Example 6] gave a Ki of 7000 nM. Compound `COc1cc(N2CCC(Oc3cccc(C(F)(F)F)c3)C2=O)ccc1OCC(C)(C)O` (stereo not shown) [Example 7] has a Ki of 6000 nM. `COc1cc(N2CCC(Oc3ccc(C(F)(F)F)cc3)C2=O)ccc1OCC(C)(C)O` (stereo not shown) [Example 8] was tested, and the Ki was 34 nM. Compound `COc1cc(N2CCC(Oc3cccc(OC(F)(F)F)c3)C2=O)ccc1OCC(C)(C)O` (stereo not shown) [Example 11] has a Ki of 5000 nM. Compound `COc1cc(N2CCC(C)(Oc3ccc(OC(F)(F)F)cc3)C2=O)ccc1OCC(C)(C)O` (stereo not shown) [Example 13, 1-(4-(2-Hydroxy-2-methylpropoxy)-3-methoxyphenyl)-3-methyl-3-(4-(trifluoromethoxy)phenoxy)pyrrolidin-2-one] has a Ki of 473 nM. For `COc1cc(N2CCC(Oc3ccc(OC(F)(F)F)cc3)C2=O)ccc1OCC(C)(C)O` (stereo not shown) [Example 14], the Ki was 134 nM. `COc1cc(N2CC[C@@H](Oc3ccc(OC(F)(F)F)cc3)C2=O)ccc1OCC(C)(C)O` [Example 15] showed a Ki of 11 nM. Work on `COc1cc(N2CC[C@H](Oc3ccc(OC(F)(F)F)cc3)C2=O)ccc1OCC(C)(C)O` [Example 16] yielded a Ki of 2340 nM. Work on `COc1cc(N2CCC(Oc3ccc(OC(F)(F)F)cc3Cl)C2=O)ccc1OCC(C)(C)O` (stereo not shown) [Example 17] yielded a Ki of 402 nM. `COc1cc(N2CCC(Oc3ccc(OC(F)(F)F)c(F)c3)C2=O)ccc1OCC(C)(C)O` (stereo not shown) [Example 18] showed a Ki of 959 nM. `COc1cc(N2CCC(Oc3ccc(-c4ccccc4)cc3)C2=O)ccc1OCC(C)(C)O` (stereo not shown) [Example 19] showed a Ki of 4 nM. `COc1cc(N2CC[C@H](Oc3ccc(-c4ccccc4)cc3)C2=O)ccc1OCC(C)(C)O` [Example 20] was tested, and the Ki was 493 nM. `COc1cc(N2CC[C@@H](Oc3ccc(-c4ccccc4)cc3)C2=O)ccc1OCC(C)(C)O` [Example 21] showed a Ki of 2 nM. For `COc1cc(N2CCC(Oc3ccc(C4CC4)cc3)C2=O)ccc1OCC(C)(C)O` (stereo not shown) [Example 22, 3-(4-Cyclopropylphenoxy)-1-(4-(2-hydroxy-2-methylpropoxy)-3-methoxyphenyl)pyrrolidin-2-one], the Ki was 23 nM. Compound `COc1cc(N2CCC(Oc3ccc(OC4CC4)cc3)C2=O)ccc1OCC(C)(C)O` (stereo not shown) [Example 23] has a Ki of 44 nM. `COc1cc(N2CCC(Oc3ccc(-c4ccccc4F)cc3)C2=O)ccc1OCC(C)(C)O` (stereo not shown) [Example 24, 3-(2'-Fluorobiphenyl-4-yloxy)-1-(4-(2-hydroxy-2-methylpropoxy)-3-methoxyphenyl)pyrrolidin-2-one] showed a Ki of 9 nM. Compound `COc1cc(N2CCC(Oc3ccc(-c4ccccc4Cl)cc3)C2=O)ccc1OCC(C)(C)O` (stereo not shown) [Example 25] has a Ki of 68 nM. Compound `COc1cc(N2CCC(Oc3ccc(-c4ccccc4C)cc3)C2=O)ccc1OCC(C)(C)O` (stereo not shown) [Example 26] has a Ki of 81 nM. For `COc1cc(N2CCC(Oc3ccc(-c4ccccc4OC)cc3)C2=O)ccc1OCC(C)(C)O` (stereo not shown) [Example 27], the Ki was 238 nM. `COc1cc(N2CCC(Oc3ccc(-c4ccccc4C(F)(F)F)cc3)C2=O)ccc1OCC(C)(C)O` (stereo not shown) [Example 28] gave a Ki of 956 nM. Work on `COc1cc(N2CCC(Oc3ccc(-c4ccccc4)c(Cl)c3)C2=O)ccc1OCC(C)(C)O` (stereo not shown) [Example 29] yielded a Ki of 87 nM. For `COc1cc(N2CCC(Oc3ccc(-c4ccccc4)c(F)c3)C2=O)ccc1OCC(C)(C)O` (stereo not shown) [Example 30], the Ki was 12 nM. Compound `COc1cc(N2CCC(Oc3ccc(-c4ccccc4F)c(F)c3)C2=O)ccc1OCC(C)(C)O` (stereo not shown) [Example 31] has a Ki of 34 nM. Compound `COc1cc(N2CCC(Oc3ccc(-c4ccncc4Cl)cc3)C2=O)ccc1OCC(C)(C)O` (stereo not shown) [Example 32] has a Ki of 634 nM. Work on `Cc1cc(N2CCC(Oc3ccc(N4CCOCC4)cc3)C2=O)ccc1OCC(C)(C)O` (stereo not shown) [Example 33] yielded a Ki of 903 nM. `COc1cc(N2CCC(Oc3ccc(-c4ccccc4)cn3)C2=O)ccc1OCC(C)(C)O` (stereo not shown) [Example 34, 1-(4-(2-Hydroxy-2-methylpropoxy)-3-methoxyphenyl)-3-(5-phenylpyridin-2-yloxy)pyrrolidin-2-one] showed a Ki of 13 nM. With `COc1cc(N2CCC(Oc3ccc(-c4ccccc4)nc3)C2=O)ccc1OCC(C)(C)O` (stereo not shown) [Example 35] the Ki was 81 nM. Work on `COc1cc(N2CCC(Oc3ccc(-c4cccnc4)cc3)C2=O)ccc1OCC(C)(C)O` (stereo not shown) [Example 36] yielded a Ki of 67 nM. With `COc1cc(N2CCC(Oc3ccc(-c4ccncc4)cc3)C2=O)ccc1OCC(C)(C)O` (stereo not shown) [Example 37] the Ki was 73 nM. Compound `COc1cc(N2CCC(Oc3ccc(-n4cccc4)cc3)C2=O)ccc1OCC(C)(C)O` (stereo not shown) [Example 38] has a Ki of 5 nM. In the case of `COc1cc(N2CCC(Oc3ccc(-n4ccnc4)cc3)C2=O)ccc1OCC(C)(C)O` (stereo not shown) [Example 39], the Ki is reported as 480 nM. In the case of `COc1cc(N2CCC(Oc3ccc(Br)c(Cl)c3)C2=O)ccc1OCC(C)(C)O` (stereo not shown) [Example 41], the Ki is reported as 522 nM. For `COc1cc(N2CCC(Oc3ccc(Br)c(F)c3)C2=O)ccc1OCC(C)(C)O` (stereo not shown) [Example 42], the Ki was 821 nM. In the case of `COc1ccc(N2CCC(Oc3ccc(-c4ccccc4)cc3)C2=O)cc1OC` (stereo not shown) [Example 43], the Ki is reported as 19 nM. `COc1cc(N2CC[C@@H](Oc3ccc(-c4ccccc4)cc3)C2=O)ccc1OC[C@H](O)C1CC1` [Example 44] was tested, and the Ki was 4 nM. Work on `COc1cc(N2CC[C@H](Oc3ccc(-c4ccccc4)cc3)C2=O)ccc1OC[C@H](O)C1CC1` [Example 45] yielded a Ki of 1060 nM. In the case of `COc1cc(N2CCC(Oc3ccc(C4CC4)cc3)C2=O)ccc1OC[C@H](O)C1CC1` (stereo partly shown) [Example 46], the Ki is reported as 12 nM. `COc1cc(N2CCC(Oc3ccc(-c4ccccc4)cc3)C2=O)ccc1OCC1(O)CC(F)(F)C1` (stereo not shown) [Example 47] gave a Ki of 7 nM. In the case of `CCS(=O)(=O)C[C@H](O)COc1ccc(N2CCC(Oc3ccc(OC(F)(F)F)cc3)C2=O)cc1OC` (stereo partly shown) [Example 50], the Ki is reported as 197 nM. With `CCS(=O)(=O)C[C@@H](O)COc1ccc(N2CCC(Oc3ccc(OC(F)(F)F)cc3)C2=O)cc1OC` (stereo partly shown) [Example 51] the Ki was 78 nM. In the case of `CCS(=O)(=O)C[C@@H](O)COc1ccc(N2CCC(Oc3ccc(C4CC4)cc3)C2=O)cc1OC` (stereo partly shown) [Example 52], the Ki is reported as 16 nM. In the case of `CCS(=O)(=O)C[C@@H](O)COc1ccc(N2CCC(Oc3ccc(C(F)(F)F)cc3)C2=O)cc1OC` (stereo partly shown) [Example 53], the Ki is reported as 109 nM. Compound `CCS(=O)(=O)C[C@@H](O)COc1ccc(N2CCC(Oc3ccc(-c4ccc(F)cc4)cc3)C2=O)cc1OC` (stereo partly shown) [Example 54] has a Ki of 21 nM. With `CCS(=O)(=O)C[C@@H](O)COc1ccc(N2CCC(Oc3ccc(-c4cccc(F)c4)cc3)C2=O)cc1OC` (stereo partly shown) [Example 55] the Ki was 38 nM.
